From US20040198673A1, “Composition for epigallocatechin gallate” (priority 2001, published 2004) come the findings set out here.

This series can be described thus: Agway test of powder flowability (glass funnel, 11-mm opening). As to conditions: 100 g, 11-mm funnel opening. The series is classed as physicochemical. As to the method:
Granulated EGCG was compared with EGCG powder (the starting material for granulation) for powder flowability using the Agway test. In that test, flowability is determined by placing 100 gram of the granules in a glass funnel with a 11-mm opening, which is sealed temporarily. The measurement is started by releasing the seal. Flowability is determined as the time for the entire powder to flow through the funnel in seconds per 100 g of granule.

Take “(−)-epigallocatechin gallate [EGCG powder]”: the “Powder flowability (result in words)” value is given as “did not flow”.
